From US5380759A, “Methyl N-[6-(3,4,5-trimethoxybenzloxy)imidazo[1,2-b]pyridazin-2-zyl]carbamate used to treat leukemia” (priority 1987, dated 1995)

Columns and labels:
P388/CPA = assay: In vivo activity against drug resistant tumour P388/CPA; design: species or system mouse; conditions: optimum dose 265.0 mg/kg
P388/5FU = assay: In vivo activity against drug resistant tumour P388/5FU; design: species or system mouse; conditions: optimum dose 20.0 mg/kg
Experimental: (§1) CD2-F1 mice, of the same sex, weighing within a 3 gram range surrounding 20 g, are used for this test. Control and test animals are injected intraperitoneally with a suspension of 10^6 viable P388/O tumour cells on day 0. In each test several dose levels which bracket the LD20 for the compound are evaluated; each dose level group contains 6 animals. The test compounds are prepared either in physiologic saline containing 0.05% Tween 80 or distilled water containing 5% dextrose and are administered intraperitoneally on days 1,5 and 9 relative to tumour implant. Doses are on a mg/kg basis according to individual animals' body weights. The day of death for each animal is recorded and the median day of death identified for each group. The difference between the median survival time for treated and control groups is expressed as a percentage increase in life span (% ILS).
(§2) E. Activity Against Drug-Resistant Tumours
(§3) Using a similar procedure to the Lymphocytic Leukaemia P388/O test, the compound of Example 1 was evaluated against P388/O tumours which had been made resistant to the following standard, clinically used anti-tumour agents: […]

P388/VCR = assay: In vivo activity against drug resistant tumour P388/VCR; design: species or system mouse; conditions: optimum dose 1.5 mg/kg
Experimental: as §1, §2, §3

microtubule function = conditions: cited from earlier work

## O=P1(N(CCCl)CCCl)NCCCO1 (stereo not shown) [CPA, cylophosphamide, reference compound]
P388/CPA
  60 Day Survivors: 0/6
  % ILS: +55%

## O=c1[nH]cc(F)c(=O)[nH]1 [Example 5FU, 5-fluorouracil, reference compound]
P388/5FU
  60 Day Survivors: 0/6
  % ILS: +71%

## CC[C@]1(O)C[C@H]2CN(CCc3c([nH]c4ccccc34)[C@@](C(=O)OC)(c3cc4c(cc3OC)N(C=O)[C@H]3[C@@](O)(C(=O)OC)[C@H](OC(C)=O)[C@]5(CC)C=CCN6CC[C@]43[C@@H]65)C2)C1 [VCR, Vincristine, reference compound]
P388/VCR
  60 Day Survivors: 0/6
  % ILS: +36%
Microtubule function
  microtubule inhibitory activity: inhibitor of microtubule function
